In PMC11726359, “Discovery of Rezatapopt (PC14586), a First-in-Class, Small-Molecule Reactivator of p53 Y220C Mutant in Development” (ACS Medicinal Chemistry Letters, 2024):
Where two headings read alike, the source gives them in different places.

What was measured:
[1] = Half-life in human liver microsomes; format: in vitro ADME; details: read-out: half-life (T1/2)
Description: However, there was a significant improvement in potency with fluorine substitution at the hydrophobic anchor (R3 = CF3, compound 7). […] The trifluoromethyl group remained the best anchor throughout the hit expansion and drug discovery campaign. Assessment of the 4-substituted indole compounds (R1 = H, compounds 8–14) led to a breakthrough regarding the potency of the compounds. Our molecular modeling predicted that the side chain of Threonine-150 within the p53 Y220C protein would form a hydrogen bond with the ligand. This interaction helped to orient the ligand in the binding pocket of the p53 Y220C mutant protein and enhance other interactions such as hydrophobic and van der Waals interactions. […] With the nitrogen atom in place, various polar groups were assessed, and it was determined that basic nitrogen, such as that in the piperidine ring, was preferred for maintaining the potency of the compound (R2 = S5). Many substituents can be tolerated for the aromatic ring occupying the subsite.

[2] = target: T1, recombinant His-tag Y220C p53 DNA binding domain (Homo sapiens, UniProt P04637, Y220C); experiment: TR-FRET DNA binding assay (SC150); format: biochemical
T1 construct: Y220C p53 DBD protein (amino acids #94-312); made in house
Description: At the outset of our hit generation campaign, several small molecules targeting the p53 Y220C mutant protein were identified. Two notable examples, supported by crystallographic data, were the compounds from the carbazole series[6] (PhiKan83) and the iodophenol series[7] (PK1596) (Figure 1). To assess the in vitro potency of the p53 Y220C reactivators, a time-resolved fluorescence resonance energy transfer (FRET) assay was developed. In this assay, recombinant His-tag Y220C p53 DNA binding domain binds to biotin-labeled consensus DNA, and the FRET signal is measured between the allophycocyanin-conjugated anti-His-tag antibody and europium-conjugated streptavidin. The […] concentration required to increase DNA binding by 1.5-fold (SC150) could then be determined. The carbazole compound (PhiKan83) enhanced DNA binding with an SC150 of 37.2 μM. […]
Time-Resolved Fluorescence Resonance Energy Transfer (TR-FRET) Assay
DNA binding activity was measured by the TR-FRET assay. In this assay, the recombinant His6-tag Y220C p53 DNA binding domain (DBD) protein binds to biotin labeled consensus DNA. The binding of recombinant His6-tag Y220C p53 DBD protein and biotin-labeled consensus DNA is detected by the fluorescence resonance energy transfer (FRET) between allophycocyanin (APC) conjugated anti-His6 tag antibody and Europium-(Eu) conjugated Streptavidin. Test compounds, at 2 mM stock in DMSO, were diluted t hr e e-f ol d in serial dilutions in DMSO and 1.2 µL per well were added into 384-well polypropylene black plates (NUNC). Subsequently, 30 µL per well of 181 nM recombinant His6-tag Y220C p53 DBD protein (amino acids #94-312) and 9.1 nM of APC conjugated anti-His6 tag antibody (Columbia Biosciences) in ice-cold Assay Buffer 1 (50 mM Tris-HCl, pH 7.4, 75 mM KCl, 0.75 mM DTT and 0.2 mg/mL bovine serum albumin [BSA]) was added. As a background control, 30 µL of Assay Buffer 1 containing 9.1 nM of APC anti-His6 antibody (no Y220C protein) was also added into a second set of serial diluted compound plates. The samples were centrifuged at 1,200 rpm (Eppendorf 5810R plate centrifuge) for 1 minute and incubated at room temperature (20 °C) for 15 min. The samples were then incubated at 27 °C in a water bath for 48 min. Afterwards, 5 µL per well of 145 nM biotin labeled oligonucleotide from a consensus DNA p53 response element (a DNA duplex with 5’ to 3’sequence of […]
and biotin attached to the 3’ end of the complementary DNA) and 8.8 nM Eu-conjugated streptavidin (Columbia Biosciences) in Assay Buffer 2 (50 mM Tris-HCl, pH 7.4, 75 mM KCl and 0.2 mg/mL BSA) were added. The samples were centrifuged at 1,200 rpm for 1 min and incubated at room temperature (20 °C) for 20 min. Assay signals were monitored by reading excitation at 340 nm, and emission fluorescence at 615 and 665 nm, on an Envision reader (Perkin El mer). Normalized TR -FRET assay signal (Rn) was calculated by the formula:
Rn = [(A − B a − C × (D − Bd))/(D − Bd)] × (Dc − B d),
C = (Ac − B a)/(Dc − B d), […]

[3] = Pharmacokinetic study in mice; details: 50 mg/kg
Protocol: (§1) Pharmacokinetic parameters were evaluated in female CD-1 mice. Animals received an oral gavage dose of 50 mg/kg of the test article. The test article was formulated in a solution containing 2% hydroxypropyl
(§2) cellulose and 0.5% Tween 80 in water. Blood samples were collected at 0.5, 1, 2, 4, 7, and 24 h post dose.
(§3) Blood samples were processed into plasma, and the concentrations of the test article were determined by
(§4) LC-MS/MS. P harmacokinetic parameters were calculated using the Phoenix WinNonlin 6.3 program,
(§5) employing a non- compartmental model 200.

[4] = tested on: NUGC-3, gastric cancer cell line with a TP53 Y220C mutation; experiment: MTT cell proliferation assay; format: cell-based, human; details: for IC50: Homo sapiens, NUGC-3, 120 h, NUGC-3 cells, five days incubation
Protocol: We also evaluated the effects of these compounds on the growth and viability of four cancer cell lines in vitro. Two of the cell lines (NUGC-3, gastric cancer cell line with a TP53 Y220C mutation and T3M-4, pancreatic carcinoma cell line) have the TP53 Y220C mutation leading to the p53 Y220C mutant protein; SJSA-1 is a p53 WT cell line, and NUGC-3-KO is an isogenic p53 knockout cell line.[11] After incubating the cells with the compounds for five days, cell viability was measured using the 3-(4,5-dimethylthiazol-2-yl)-2,5-diphenyltetrazolium bromide (MTT) assay.
C = (Ac − B a)/(Dc − B d),
Prism (GraphPad) or XLfit software (IDBS).
Cells were seeded at an appropriate
Compounds were tested at eight concentrations with 2-fold serial dilutions. […]
with a reference wavelength of 650 nm. […]
untreated cells (control). […]

Caco-2 permeability = format: in vitro ADME; details: human
Description: Significant efforts were dedicated to the optimization of compound 13, and a successful approach involved fluorine substitution of the piperidine ring. Fluorine substitution often plays a crucial role in medicinal chemistry, exerting a substantial impact on the characteristics of drug molecules.[12],[13] Incorporation of fluorine atoms can yield diverse effects and improvements in a drug’s pharmacological properties. In the case of the piperidine ring in compound 13, several key effects of fluorine substitution were predicted, including enhanced hydrogen bonding with Threonine-150, increased conformational rigidity of the piperidine ring, and reduced basicity. […] We postulated that the fluorine atom on the piperidine ring of compound 22, which preferentially stays in the axial position, can form a better hydrogen bond with the N-H group of Threonine-150. The enhanced cellular potency of compound 22 can be attributed to the enhanced permeability. […] Recently, insights into the conformational behavior of cis-fluorinated piperidines were reported.[14]

NUGC-3 tumor xenografts = experiment: NUGC-3 tumor xenograft efficacy in nude mice; format: in vivo, mouse; details: for inhibition of tumor growth: oral, daily
Protocol: Compound 26 (rezatapopt; PC14586), which had the most favorable plasma exposure, was evaluated for its ability to inhibit the growth of NUGC-3 tumor xenografts in nude mice.
Study of C ompound 26 in NUGC-3 Xenograft
Female Balb/c nude mice, aged 4 to 6 weeks, were obtained from Envigo (Madison, WI). All mice were housed at the PMV Pharmaceuticals Vivarium. Mouse care and experimental procedures adhered to institutional guidelines for ethical use, with all research protocols approved by the Institutional Animal Care and Use Committees of PMV Pharmaceuticals. The mice were maintained at ambient temperatures of 68–72 °F, with 30–70% humidity, and a 12 -hour dark/light cycle.
NUGC-3 cells were resuspended at a concentration of 1×10^7 viable cells/mL in a 50:50 mixture of phosphate-buffered saline and Matrigel Matrix (Corning). Subsequently, 100 µL of the suspension was injected subcutaneously into the dorsal flankof the mice . Mice were selected and randomized into treatment groups based on tumor size.

Toxicological studies = details: result in words
[5] = tested on: TP53 Y220C mutant solid tumors; set-up: method as in doi:10.1158/1535-7163.TARG-23-LB_A25; details: cited from earlier work
[6] = female, CD-1, mouse, in vivo, po, 50 mg/kg
Protocol: as §1, §2, §3, §4, §5

[7] = Table 1, concentration required to increase DNA binding by 1.5-fold
[8] = Table 2, concentration required to increase DNA binding by 1.5-fold
[9] = Table 3, concentration required to increase DNA binding by 1.5-fold

CCn1c(C#CCNc2ccccc2)cc2cc(CNC)ccc21 [Compound 1, N-[3-[1-ethyl-5-(methylaminomethyl)indol-2-yl]prop-2-ynyl]aniline]
half-life [1]: 4 min | SC150 ([2]; Figure 1, enhancement of DNA binding): 13600 nM | SC150 [2, 7]: 13600 nM

COc1cc(S(C)(=O)=O)ccc1NCC#Cc1cc2c(NC3CCN(C)CC3)cccc2n1CC(F)(F)F [Compound 13]
Mouse PK Exposure AUC0-last ([3]; Table 2, PO): 3545 ng·h/mL | Mouse PK Exposure Cmax ([3]; Table 2, PO): 903 ng/mL | IC50 ([4]; Table 2): 2100 nM | Papp (Caco-2 permeability): 11.8 ×10⁻⁶ cm/s | SC150 [2, 7]: 23 nM | SC150 [2, 8]: 23 nM

COc1cc(S(C)(=O)=O)ccc1NCC#Cc1cc2c(N[C@@H]3CCN(C)C[C@@H]3F)cccc2n1CC(F)(F)F [Compound 22, N-[(3S,4R)-3-fluoro-1-methyl-4-piperidyl]-2-[3-(2-methoxy-4-methylsulfonyl-anilino)prop-1-ynyl]-1-(2,2,2-trifluoroethyl)indol-4-amine]
Mouse PK Exposure AUC0-last ([3]; Table 2, PO): 12567 ng·h/mL | Mouse PK Exposure Cmax ([3]; Table 2, PO): 2103 ng/mL | IC50 ([4]; Table 2): 300 nM | IC50 ([4]; Table 3): 325 nM | fold increased potency compared with compound 13 ([4]; MTT assay, vs compound 13): approximately 7 fold | Papp (Caco-2 permeability): 19.9 ×10⁻⁶ cm/s | SC150 [2, 8]: 8 nM

COc1cc(C(=O)O)ccc1NCC#Cc1cc2c(N[C@@H]3CCN(C)C[C@@H]3F)cccc2n1CC(F)(F)F [Compound 24, 4-((3-(4-(((3S,4R)-3-fluoro-1-methylpiperidin-4-yl)amino)-1-(2,2,2-trifluoroethyl)-1H-indol-2-yl)prop-2-yn-1-yl)amino)-3-methoxybenzoic acid]
Mouse PK Exposure AUC0-last ([3]; Table 3, PO): 57882 ng·h/mL | Mouse PK Exposure Cmax ([3]; Table 3, PO): 27700 ng/mL | IC50 ([4]; Table 3): 990 nM | tumor growth inhibition (NUGC-3 tumor xenografts; 150 mg/kg, same xenograft model): 54% | SC150 [2, 9]: 11 nM

COc1cc(C(N)=O)ccc1NCC#Cc1cc2c(N[C@@H]3CCN(C)C[C@@H]3F)cccc2n1CC(F)(F)F [Compound 25, 4-[3-[4-[[(3S,4R)-3-fluoro-1-methyl-4-piperidyl]amino]-1-(2,2,2-trifluoroethyl)indol-2-yl]prop-2-ynyl-amino]-3-methoxy-benzamide]
Mouse PK Exposure AUC0-last ([3]; Table 3, PO): 39774 ng·h/mL | Mouse PK Exposure Cmax ([3]; Table 3, PO): 4473 ng/mL | IC50 ([4]; Table 3): 446 nM | SC150 [2, 9]: 8 nM

CNC(=O)c1ccc(NCC#Cc2cc3c(N[C@@H]4CCN(C)C[C@@H]4F)cccc3n2CC(F)(F)F)c(OC)c1 [Compound 26]
Mouse PK Exposure AUC0-last ([3]; Table 3, PO): 163342 ng·h/mL | Mouse PK Exposure Cmax ([3]; Table 3, PO): 16600 ng/mL | IC50 ([4]; Table 3): 504 nM | safety profile in toxicological studies (Toxicological studies): favorable safety profile | clinical efficacy in Phase 1 clinical trials ([5]; heavily pretreated patients, solid tumors harboring TP53 Y220C, listed as rezatapopt): single-agent clinical efficacy was achieved | safety profile in Phase 1 clinical trials ([5]; within the efficacious dose range): favorable safety profile | tumor regression (NUGC-3 tumor xenografts; 100 mg/kg, nude mice): 80% | effect on established human tumor xenografts harboring TP53 Y220C (NUGC-3 tumor xenografts; mouse models, well-tolerated doses, result in words): tumor inhibition and regression | inhibition of tumor growth (NUGC-3 tumor xenografts; 25 mg/kg, nude mice): 33% | inhibition of tumor growth (NUGC-3 tumor xenografts; 50 mg/kg, nude mice): 71% | SC150 [2, 9]: 9 nM

COc1cc(C(=O)NC2CCOCC2)ccc1NCC#Cc1cc2c(N[C@@H]3CCN(C)C[C@@H]3F)cccc2n1CC(F)(F)F [Compound 27, 4-((3-(4-(((3S,4R)-3-fluoro-1-methylpiperidin-4-yl)amino)-1-(2,2,2-trifluoroethyl)-1H-indol-2-yl)prop-2-yn-1-yl)amino)-3-methoxy-N-(tetrahydro-2H-pyran-4-yl)benzamide]
Mouse PK Exposure AUC0-last ([3]; Table 3, PO): 3261 ng·h/mL | Mouse PK Exposure Cmax ([3]; Table 3, PO): 807 ng/mL | IC50 ([4]; Table 3): 531 nM | SC150 [2, 9]: 7 nM

COc1cc(C(=O)N2CC3(COC3)C2)ccc1NCC#Cc1cc2c(N[C@@H]3CCN(C)C[C@@H]3F)cccc2n1CC(F)(F)F [Compound 28, [4-[3-[4-[[(3S,4R)-3-fluoro-1-methyl-4-piperidyl]amino]-1-(2,2,2-trifluoroethyl)indol-2-yl]prop-2-ynyl-amino]-3-methoxy-phenyl]-(2-oxa-6-azaspiro[3.3]heptan-6-yl)methanone]
IC50 ([4]; Table 3): 457 nM | Mouse PK Exposure AUC0-last [6]: 15328 ng·h/mL | Mouse PK Exposure Cmax [6]: 2747 ng/mL | SC150 [2, 9]: 7 nM

COc1cc(C(=O)NCC(O)CO)ccc1NCC#Cc1cc2c(N[C@@H]3CCN(C)C[C@@H]3F)cccc2n1CC(F)(F)F (stereo partly drawn) [Compound 29, N-(2,3-dihydroxypropyl)-4-[3-[4-[[(3S,4R)-3-fluoro-1-methyl-4-piperidyl]amino]-1-(2,2,2-trifluoroethyl)indol-2-yl]prop-2-ynylamino]-3-methoxy-benzamide]
Mouse PK Exposure AUC0-last ([3]; Table 3, PO): 117 ng·h/mL | Mouse PK Exposure Cmax ([3]; Table 3, PO): 54 ng/mL | IC50 ([4]; Table 3): 574 nM | SC150 [2, 9]: 8 nM
